# Source: PMC11864979, “First-in-class ultralong-target-residence-time p38α inhibitors as a mitosis-targeted therapy for colorectal cancer” (Nature Cancer, 2025)
# Several values for one entry are separate records, joined by “and”; a condition that tells them apart may be missing. Equal entries are not always repeated. Where two headings read alike, the source gives them in different places.
# Experiments:
# KAP organoids = experiment: cell viability in KAP organoids (CellTiter-Glo); type: cell-based, mouse; conditions: for viability at 1 µM: Mus musculus
# Method: (§1) For in vitro treatment studies, organoids were mechanically dissociated and digested using TrypLE supplemented with 100 µg ml^−1 DNaseI and 10.5 µM Y-27632 dihydrochloride (Invitrogen) at 37 °C. A total of 1,000–2,000 single cells were plated per well in white 96-well plates (Greiner) in culture medium containing 10% GFR Matrigel or Cultrex BME. The treatment with doxycycline (5 µg ml^−1), pharmacological inhibitors or corresponding volumes of DMSO was started 24 h after plating. Doxycycline was obtained from Sigma-Aldrich. […] Cell viability was measured by means of CellTiter-Glo 3D or CellTiter-Glo 2.0 reagent (Promega) according to the manufacturers’ instructions and the Infinite M Plex reader (Tecan, i-control version 3.9.1 software). Results were normalized to vehicle (DMSO) or to shNC. For cell-doubling assays, the cell number was quantified at the corresponding time points using Guava EasyCyte flow cytometer (Luminex, CytoSoft v5.2 software).
# PDO6 = experiment: cell viability in patient-derived CRC organoids PDO6; type: cell-based, human
# Method: as §1
# PDO7 = experiment: cell viability in patient-derived CRC organoids PDO7; type: cell-based, human; conditions: PDO7, 1 µM, 4 days
# Method: as §1
# PDO10 = experiment: cell viability in patient-derived CRC organoids PDO10; type: cell-based, human
# Method: as §1
# PDO13 = experiment: cell viability in patient-derived CRC organoids PDO13; type: cell-based, human
# Method: as §1
# PDO14 = experiment: cell viability in patient-derived CRC organoids PDO14; type: cell-based, human
# Method: as §1
# PDO15 = experiment: cell viability in patient-derived CRC organoids PDO15; type: cell-based, human
# Method: as §1
# LS 174T = experiment: cell viability in human CRC cell line LS 174T; type: cell-based
# HT-29 = experiment: cell viability in human CRC cell line HT-29; type: cell-based; conditions: for HT-29 Cell viability (%) / viability at 0.0137 µM / viability at 0.0412 µM / viability at 0.1235 µM / viability at 0.3704 µM / viability at 1.1111 µM / viability at 3.3333 µM / viability at 10 µM: ED Fig. 9h, replicates; for viability at 0.0137 µM: HT-29, 0.0137 µM; for viability at 0.0137 µM / viability at 0.0412 µM / viability at 0.1235 µM / viability at 0.3704 µM / viability at 1.1111 µM / viability at 3.3333 µM / viability at 10 µM: read-out: HT-29 Cell viability (%); for viability at 0.0412 µM: HT-29, 0.0412 µM; for viability at 0.1235 µM: HT-29, 0.1235 µM; for viability at 0.3704 µM: HT-29, 0.3704 µM; for viability at 1.1111 µM: HT-29, 1.1111 µM; for viability at 3.3333 µM: HT-29, 3.3333 µM; for viability at 10 µM: HT-29, 10.0000 µM
# Method: To generate KAP^2D cells, KAP organoids were isolated from Matrigel, fragmented by mechanical dissociation and plated without any extracellular matrix on common cell culture dishes. Phoenix-Eco packaging cells (CRL-3214), HCT-15 (CCL-225), HCT 116 (CCL-247), COLO 205 (CCL-222), LS 174T (CL-188), RKO (CRL-2577) and HT-29 (HTB-38) were obtained from the American Type Culture Collection. The cells were cultured at 37 °C and 7% CO2 with RPMI (KAP^2D cells) or DMEM (other cell lines), supplemented with 10% FBS and penicillin–streptomycin. KAP^2D cells were authenticated using PCR (Kras locus and Trp53 locus). Phoenix-Eco packaging cells and HCT-15, HCT 116, COLO 205, LS 174T, RKO and HT-29 cells were authenticated by the provider using short tandem repeat profiling. No commonly misidentified cell lines were used. Mycoplasma contamination was excluded by a PCR-based analysis.
# as §1
# KAP^2D cells = experiment: EdU incorporation in KAP^2D cells; type: cell-based, mouse; conditions: replicates, experiment and repetition
# Method: Immunofluorescence staining on cells and organoids was performed on glass coverslips or tissue culture chambers (Sarstedt). Organoids were plated in medium containing 10% Matrigel or Cultrex BME. The cultures were fixed with 4% paraformaldehyde and stained with specific antibodies and DAPI (Vector Labs). All used antibodies and dilutions are listed in the Nature Portfolio Reporting Summary. For analyzing DNA synthesis, the Molecular Probes Click-iT EdU Alexa Fluor 555 kit was used 24 h after EdU incorporation with DAPI counterstaining. SA-β-Gal staining of cells was performed in cell culture dishes (cells) or tissue culture chambers (organoids) after fixation with 0.5% glutaraldehyde as described above. Human cultures were incubated with X-Gal solution at pH 6.0 for ~4 h.
# KAP liver metastasis = experiment: survival of wild-type mice with KAP liver metastasis; type: in vivo, mouse
# Method: Subcutaneous injection, splenic seeding or cecum injection of organoids was performed in 8–10-week-old C57BL/6 N/Crl, Rag2^−/− (B6.Cg-Rag2^tm1.1Cgn/J), or CB17 Scid beige (CB17.Cg-Prkdc^scidLyst^bg-J/Crl) mice, obtained from Charles River. The organoids were dissociated into single cells, washed with PBS and injected in a 1:1 mixture of PBS and Matrigel. For murine organoids, 1 × 10^5 cells were injected into the left and right flanks or the spleen capsule and 2 × 10^6 cells were injected into the cecum wall. For human organoids, 4 × 10^5 cells were injected into the flanks of CB17 Scid beige mice. For splenic seeding and cecum injection, mice were anaesthetized using ketamine (100 mg kg^−1, intraperitoneally) and xylazin (10 mg/kg, intraperitoneally) in NaCl and a small laparotomy below the thorax was performed.
# No mice were excluded during treatment studies.
smiles,measurement,setting,value
CNC(=O)c1ccc2c(c1)C(=O)c1ccc(Nc3ccc(F)c(NC(=O)C4CC4)c3)cc1CC2 [Compound 2015],Cell viability (%),"KAP organoids; Fig. 2b, compound screen, replicates",20.98% and 10.41% and 17.65%
same,Cell viability (%),"KAP organoids; Fig. 2f, 0,5 µM, replicates, 5 µM",20.49% and 19.41%
same,Cell viability (%),"KAP organoids; Fig. 2f, 0,25 µM, replicates, 25 µM",76.91% and 71.00%
same,Cell viability (%),"KAP organoids; Fig. 2f, 1 µM, replicates",22.79% and 21.48%
same,viability at 1 µM,"KAP organoids; Fig. 2f, 1 µM, replicates, read-out: Cell viability (%)",22.2%
same,viability at 1 µM,"KAP organoids; drug screen in KAP organoids, 1 µM concentration, n = 3, mean, read-out: Cell viability (% of DMSO)",16.4%
same,induction of cell death in KAP organoids (in words),KAP organoids; viability assay,increased cell death induction
same,viability at 0.5 µM,"PDO6; Homo sapiens, 96 h, PDO6, 0.5 µM, 4 d",20.6%
same,Cell viability (%),"PDO6; PDO6, 0.5 µM, 4 d, 0.5 µM",31.27% and 20.78%
same,Cell viability (%),"PDO6; PDO6, 1 µM, 4 days, 1 µM",11.74% and 11.40% and 5.21%
same,viability at 1 µM,"PDO7; Homo sapiens, 96 h, read-out: Cell viability (%)",5.06%
same,Cell viability (%),PDO7; 1 µM,7.93% and 9.20%
same,viability at 1 µM,"PDO10; Homo sapiens, 96 h, PDO10, 1 µM, 4 days, read-out: Cell viability (%)",32.9%
same,Cell viability (%),"PDO10; PDO10, 0.5 µM, 4 d, 0.5 µM",34.24% and 30.71% and 56.53%
same,Cell viability (%),"PDO10; PDO10, 1 µM, 4 days, 1 µM",48.68% and 34.77%
same,viability at 0.5 µM,"PDO13; Homo sapiens, 96 h, PDO13, 0.5 µM, 4 d, read-out: Cell viability (%)",25.4%
same,viability at 1 µM,"PDO13; Homo sapiens, 96 h, PDO13, 1 µM, 4 days, read-out: Cell viability (%)",27.4%
same,Cell viability (%),"PDO13; PDO13, 0.5 µM, 4 d, 0.5 µM",27.09% and 31.57%
same,Cell viability (%),"PDO13; PDO13, 1 µM, 4 days, 1 µM",24.42% and 28.18%
same,viability at 1 µM,"PDO14; Homo sapiens, 96 h, PDO14, 1 µM, 4 days, read-out: Cell viability (%)",38%
same,Cell viability (%),"PDO14; PDO14, 0.5 µM, 4 d, 0.5 µM",66.36% and 80.25% and 88.11%
same,Cell viability (%),"PDO14; PDO14, 1 µM, 4 days, 1 µM",35.04% and 42.53%
same,viability at 0.5 µM,"PDO15; Homo sapiens, 96 h, PDO15, 0.5 µM, 4 d, read-out: Cell viability (%)",77.8%
same,viability at 1 µM,"PDO15; Homo sapiens, 96 h, PDO15, 1 µM, 4 days, read-out: Cell viability (%)",42.9%
same,Cell viability (%),"PDO15; PDO15, 0.5 µM, 4 d, 0.5 µM",81.70% and 63.83%
same,Cell viability (%),"PDO15; PDO15, 1 µM, 4 days, 1 µM",57.05% and 51.26%
same,LS 174T Cell viability (%),"LS 174T; 0.0137 µM, 4 d",96.94% and 94.17% and 83.74% and 81.63% and 85.36%
same,LS 174T Cell viability (%),"LS 174T; 0.0412 µM, 4 d",73.38% and 70.71% and 85.74% and 87.33% and 89.84%
same,LS 174T Cell viability (%),"LS 174T; 0.1235 µM, 4 d",69.97% and 51.36% and 67.79% and 77.35% and 76.20% and 73.53%
same,LS 174T Cell viability (%),"LS 174T; 0.3704 µM, 4 d",24.32% and 25.80% and 26.81% and 26.78% and 26.48%
same,LS 174T Cell viability (%),"LS 174T; 1.1111 µM, 4 d",31.73% and 32.17% and 36.58% and 37.87% and 35.55%
same,LS 174T Cell viability (%),"LS 174T; 3.3333 µM, 4 d",32.71% and 33.28% and 34.27% and 33.01% and 33.12%
same,LS 174T Cell viability (%),"LS 174T; 10.0000 µM, 4 d",28.71% and 24.62% and 25.79% and 25.85%
same,viability at 0.0137 µM,"LS 174T; Homo sapiens, LS174T, 96 h, 0.0137 µM, 4 d, read-out: LS 174T Cell viability (%)",92.3%
same,viability at 0.0412 µM,"LS 174T; Homo sapiens, LS174T, 96 h, 0.0412 µM, 4 d, read-out: LS 174T Cell viability (%)",70.7%
same,viability at 0.3704 µM,"LS 174T; Homo sapiens, LS174T, 96 h, 0.3704 µM, 4 d, read-out: LS 174T Cell viability (%)",25%
same,viability at 1.1111 µM,"LS 174T; Homo sapiens, LS174T, 96 h, 1.1111 µM, 4 d, read-out: LS 174T Cell viability (%)",31.5%
same,viability at 3.3333 µM,"LS 174T; Homo sapiens, LS174T, 96 h, 3.3333 µM, 4 d, read-out: LS 174T Cell viability (%)",33.1%
same,viability at 10 µM,"LS 174T; Homo sapiens, LS174T, 96 h, 10.0000 µM, 4 d, read-out: LS 174T Cell viability (%)",25.1%
same,IC50,"LS 174T; Homo sapiens, LS174T, 96 h, LS 174T, 4 d of treatment",132 nM
same,HT-29 Cell viability (%),"HT-29; 0.0137 µM, Repetition",96.89% and 103.43%
same,HT-29 Cell viability (%),"HT-29; 0.0137 µM, first experiment",95.39% and 93.39%
same,HT-29 Cell viability (%),"HT-29; 0.0412 µM, Repetition",87.26% and 92.22%
same,HT-29 Cell viability (%),"HT-29; 0.0412 µM, first experiment",90.94% and 92.11%
same,HT-29 Cell viability (%),"HT-29; 0.1235 µM, Repetition",78.51% and 65.92%
same,HT-29 Cell viability (%),"HT-29; 0.1235 µM, first experiment",82.62% and 81.99%
same,HT-29 Cell viability (%),"HT-29; 0.3704 µM, Repetition",32.88% and 34.27%
same,HT-29 Cell viability (%),"HT-29; 0.3704 µM, first experiment",11.40% and 11.69%
same,HT-29 Cell viability (%),"HT-29; 1.1111 µM, Repetition",7.40% and 7.23%
same,HT-29 Cell viability (%),"HT-29; 1.1111 µM, first experiment",7.18% and 7.44%
same,HT-29 Cell viability (%),"HT-29; 3.3333 µM, Repetition",7.01% and 6.31%
same,HT-29 Cell viability (%),"HT-29; 3.3333 µM, first experiment",10.00% and 9.86%
same,HT-29 Cell viability (%),"HT-29; 10.0000 µM, Repetition",6.48% and 6.38%
same,HT-29 Cell viability (%),"HT-29; 10.0000 µM, first experiment",9.39% and 10.22%
same,IC50,"HT-29; Homo sapiens, 96 h, HT-29, 4 d of treatment",178 nM
same,viability at 0.0137 µM,"HT-29; Homo sapiens, Repetition",99.5%
same,viability at 0.0137 µM,"HT-29; Homo sapiens, first experiment",93.3%
same,viability at 0.0412 µM,"HT-29; Homo sapiens, Repetition",82.5%
same,viability at 0.0412 µM,"HT-29; Homo sapiens, first experiment",89.4%
same,viability at 0.1235 µM,"HT-29; Homo sapiens, Repetition",73%
same,viability at 0.1235 µM,"HT-29; Homo sapiens, first experiment",79.7%
same,viability at 0.3704 µM,"HT-29; Homo sapiens, Repetition",33.4%
same,viability at 0.3704 µM,"HT-29; Homo sapiens, first experiment",12.1%
same,viability at 1.1111 µM,"HT-29; Homo sapiens, Repetition",7.21%
same,viability at 1.1111 µM,"HT-29; Homo sapiens, first experiment",7.57%
same,viability at 3.3333 µM,"HT-29; Homo sapiens, Repetition",6.86%
same,viability at 3.3333 µM,"HT-29; Homo sapiens, first experiment",10.2%
same,viability at 10 µM,"HT-29; Homo sapiens, Repetition",6.64%
same,viability at 10 µM,"HT-29; Homo sapiens, first experiment",9.63%
same,EdU+ cells,KAP^2D cells; Fig. 4j,50.19% and 55.77% and 45.40% and 44.63% and 45.42% and 38.28% and 36.62% and 49.78%
same,EdU+ cells,KAP^2D cells; Fig. 5b,7.76% and 6.30% and 5.41% and 9.24% and 8.18% and 6.48% and 4.44% and 6.67%
same,survival / therapeutic efficacy in KAP liver metastasis (in words),"KAP liver metastasis; 20 mg kg^−1 daily, start 5 weeks after organoid inoculation",significantly increased the overall survival
same,Survival,"KAP liver metastasis; single animals, 1 = event, 0 = censored, Fig. 6e",41 d of treatment and 44 d of treatment and 45 d of treatment and 47 d of treatment and ≥ 50 d of treatment and 34 d of treatment
